In the NIST ThermoML archive (doi:10.1016/j.jct.2012.02.035):
± gives the expanded uncertainty stated by the source.

Tests used:
[1] = Crystal; DTA
[2] = Solid-liquid equilibrium temperature; conditions: 101 kPa; Crystal 2; DTA
[3] = Molar enthalpy of transition or fusion; conditions: DSC

Compound	Normal melting temperature [1] [°C]	Solid-liquid equilibrium temperature [2] [K]	Molar enthalpy of transition or fusion ([3]; Crystal 2) [kcal/mol]	Molar enthalpy of transition or fusion ([3]; Crystal) [kcal/mol]
CCCC[N+](CCCC)(CCCC)CCCC.O=[N+]([O-])[O-] [tetrabutylammonium nitrate]	118.0 ± 1.1	361.4 ± 0.2	0.0478 ± 0.0239	3.42 ± 0.12
CC[N+](CC)(CC)CC.O=[N+]([O-])[O-] [tetraethylammonium nitrate]		371.5 ± 0.3	2.58 ± 0.0956	
